Reference: patent US10112932B2, “Benzoxazepin oxazolidinone compounds and methods of use” (Genentech, Inc., priority 2015, dated 2018)

Key:
[1] = target: PI3Kγ (Homo sapiens (Human), UniProt P48736); experiment: Biochemical inhibition of PI3K gamma (ADP-Glo lipid kinase assay, Example 901); conditions: geometric mean of minimum three experiments
Protocol: Reactions are carried out using the following conditions for each PI3K isoform as in Table 5.
All reactions are carried out at room temperature. […] The reaction is started by the addition of 2 μl ATP/MgCl2. The kinase reaction buffer contains 50 mM HEPES, 50 mM NaCl 3 mM MgCl2, 0.01% BSA, 1% DMSO, and enzyme and substrate concentrations as indicated in the above table. The reaction is stopped by the addition of 10 μL ADP-Glo reagent. Plates are read in a Perkin Elmer Envision system using luminescence mode. 10 point dose response curves are generated for each test compound. Ki values for each compound are determined using the Morrison Equation.

[2] = target: p110α (Homo sapiens (Human), UniProt P42336, H1047R); experiment: p110α degradation, Western blot in HCC1954 and HDQ-P1 cells after 24 hour treatment (Example 905); assay type: cell-based; conditions: HCC1954 (PI3Kα mutant H1047R) vs. HDQ-P1 (PI3Kα wild-type)
Protocol: Cell lines were grown under standard tissue culture conditions in RPMI media with 10% fetal bovine serum, 100 U/mL penicillin, and 100 μg/mL streptomycin.

[3] = Unbound fraction in mouse plasma (Fu); assay type: in vitro ADME; conditions: read-out: Fu mouse (unbound fraction in species plasma)
[4] = tested on: HCC1954 cells (PI3Kα mutant H1047R); experiment: Cell viability / antiproliferative assay in HCC1954 cells (Example 903); conditions: read-out: HCC1954 antiproliferative EC50; 4 d, Cell Titer-Glo
Protocol: Cells were seeded (1,500 per well) in 384-well plates for 16 h. On day 2, nine serial 1:3 compound dilutions were made in DMSO in a 96-well plate. The compounds were then further diluted into growth media using a Rapidplate robot (Zymark Corp.). […] After 4 d, relative numbers of viable cells were measured by luminescence using Cell Titer-Glo (Promega) according to the manufacturer's instructions and read on a Wallac Multilabel Reader (Perkin-Elmer). EC50 values were calculated using Prism 6.0 software (GraphPad).

[5] = tested on: SW48 (E545K) PI3Kα mutant cells, P-PRAS40; experiment: Inhibition of P-PRAS40 in SW48 isogenic cells, helical domain mutant E545K (Example 902)

Sequence of PI3Kγ (P48736 whole entry, canonical isoform): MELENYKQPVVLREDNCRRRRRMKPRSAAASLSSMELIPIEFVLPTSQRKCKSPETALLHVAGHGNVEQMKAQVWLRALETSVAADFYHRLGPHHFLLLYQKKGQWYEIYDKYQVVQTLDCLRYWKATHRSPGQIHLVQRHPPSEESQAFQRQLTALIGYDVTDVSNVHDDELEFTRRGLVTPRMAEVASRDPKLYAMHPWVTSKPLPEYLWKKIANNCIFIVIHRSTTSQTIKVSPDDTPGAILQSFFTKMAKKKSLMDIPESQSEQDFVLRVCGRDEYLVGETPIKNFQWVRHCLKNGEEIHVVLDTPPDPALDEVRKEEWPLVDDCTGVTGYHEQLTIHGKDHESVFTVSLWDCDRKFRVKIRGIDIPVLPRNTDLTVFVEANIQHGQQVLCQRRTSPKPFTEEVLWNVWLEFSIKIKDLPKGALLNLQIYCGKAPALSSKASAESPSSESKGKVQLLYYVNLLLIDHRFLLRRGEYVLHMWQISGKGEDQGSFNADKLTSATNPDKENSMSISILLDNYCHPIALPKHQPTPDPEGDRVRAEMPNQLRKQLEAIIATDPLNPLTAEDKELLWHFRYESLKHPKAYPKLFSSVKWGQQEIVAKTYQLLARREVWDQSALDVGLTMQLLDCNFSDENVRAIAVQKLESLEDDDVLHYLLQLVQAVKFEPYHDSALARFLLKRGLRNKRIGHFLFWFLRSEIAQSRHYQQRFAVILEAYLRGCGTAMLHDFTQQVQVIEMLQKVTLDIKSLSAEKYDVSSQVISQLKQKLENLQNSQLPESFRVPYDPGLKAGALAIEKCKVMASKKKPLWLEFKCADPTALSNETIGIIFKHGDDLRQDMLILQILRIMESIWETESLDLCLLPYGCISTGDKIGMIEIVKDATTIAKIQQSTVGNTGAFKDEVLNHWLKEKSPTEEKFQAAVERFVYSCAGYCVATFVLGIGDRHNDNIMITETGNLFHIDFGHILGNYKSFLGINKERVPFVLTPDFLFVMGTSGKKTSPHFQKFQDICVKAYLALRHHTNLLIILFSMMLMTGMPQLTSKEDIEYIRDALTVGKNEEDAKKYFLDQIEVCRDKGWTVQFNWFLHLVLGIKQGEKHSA
Sequence of p110α (P42336 whole entry H1047R): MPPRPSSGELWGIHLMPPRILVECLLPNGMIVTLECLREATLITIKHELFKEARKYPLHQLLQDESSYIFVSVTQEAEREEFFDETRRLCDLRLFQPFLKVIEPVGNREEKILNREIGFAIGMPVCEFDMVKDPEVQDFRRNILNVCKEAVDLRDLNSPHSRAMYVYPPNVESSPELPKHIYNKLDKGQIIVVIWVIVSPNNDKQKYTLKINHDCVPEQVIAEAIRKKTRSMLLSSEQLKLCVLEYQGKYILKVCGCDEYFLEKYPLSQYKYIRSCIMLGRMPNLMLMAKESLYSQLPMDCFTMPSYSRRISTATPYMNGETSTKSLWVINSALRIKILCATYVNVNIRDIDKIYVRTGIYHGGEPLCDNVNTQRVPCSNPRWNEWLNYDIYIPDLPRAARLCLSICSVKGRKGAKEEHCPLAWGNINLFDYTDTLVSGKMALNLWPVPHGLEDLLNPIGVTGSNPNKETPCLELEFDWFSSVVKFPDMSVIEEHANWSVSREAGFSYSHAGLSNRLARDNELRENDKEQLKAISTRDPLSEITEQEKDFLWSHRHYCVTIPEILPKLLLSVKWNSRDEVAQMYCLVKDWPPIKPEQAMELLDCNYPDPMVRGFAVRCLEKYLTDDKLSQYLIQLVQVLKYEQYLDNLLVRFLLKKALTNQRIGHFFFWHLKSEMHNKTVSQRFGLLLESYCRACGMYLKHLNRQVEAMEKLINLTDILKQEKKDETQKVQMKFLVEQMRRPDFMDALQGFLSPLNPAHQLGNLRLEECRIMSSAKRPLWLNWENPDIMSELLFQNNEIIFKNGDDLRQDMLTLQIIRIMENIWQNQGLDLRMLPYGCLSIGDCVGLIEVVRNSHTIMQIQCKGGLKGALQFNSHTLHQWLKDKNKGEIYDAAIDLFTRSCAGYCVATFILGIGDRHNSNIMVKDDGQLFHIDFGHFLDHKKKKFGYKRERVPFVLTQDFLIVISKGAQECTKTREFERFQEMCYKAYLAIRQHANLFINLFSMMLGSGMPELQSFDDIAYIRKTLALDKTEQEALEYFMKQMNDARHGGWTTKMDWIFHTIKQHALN
Sequence of p110α (P27986 whole entry partner): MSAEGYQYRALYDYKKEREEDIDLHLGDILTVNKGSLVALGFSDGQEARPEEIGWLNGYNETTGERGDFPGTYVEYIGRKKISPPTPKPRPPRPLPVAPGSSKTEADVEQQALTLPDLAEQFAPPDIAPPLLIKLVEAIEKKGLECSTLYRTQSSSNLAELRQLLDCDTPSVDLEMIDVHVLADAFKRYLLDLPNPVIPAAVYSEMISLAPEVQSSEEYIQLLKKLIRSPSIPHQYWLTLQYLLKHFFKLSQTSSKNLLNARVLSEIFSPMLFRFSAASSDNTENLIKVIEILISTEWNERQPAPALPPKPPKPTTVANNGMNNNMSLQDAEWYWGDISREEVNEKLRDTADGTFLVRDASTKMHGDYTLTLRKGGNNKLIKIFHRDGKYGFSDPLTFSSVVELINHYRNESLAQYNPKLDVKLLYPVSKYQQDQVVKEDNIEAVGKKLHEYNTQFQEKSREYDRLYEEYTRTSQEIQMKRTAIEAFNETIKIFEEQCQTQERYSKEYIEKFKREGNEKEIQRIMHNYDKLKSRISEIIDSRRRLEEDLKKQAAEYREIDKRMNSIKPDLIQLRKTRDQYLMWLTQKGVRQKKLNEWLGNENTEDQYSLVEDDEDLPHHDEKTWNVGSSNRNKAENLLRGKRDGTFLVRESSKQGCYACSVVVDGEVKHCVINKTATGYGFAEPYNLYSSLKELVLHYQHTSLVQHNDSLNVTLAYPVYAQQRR

C[C@H](Nc1ccc2c(c1)OCCn1cc(N3C(=O)OC[C@H]3C(F)F)nc1-2)C(N)=O [Compound 101, (S)-2-((2-((S)-4-(Difluoromethyl)-2-oxooxazolidin-3-yl)-5,6-dihydrobenzo[f]imidazo[1,2-d][1,4]oxazepin-9-yl)amino)propanamide]
Ki [1]: 18.2 nM
p110α levels (Western blot) [2]: promote reduction of p110α levels selectively in PI3K mutant
fraction unbound [3]: 0.252
EC50 [4]: 60 nM
Fold Selectivity for SW48 (E545K) vs. SW48 (parental) ([5]; EC50 ratio): 2.4 (p < 0.001)
EC50 ([5]; Homo sapiens, SW48, 24 h, read-out: P-PRAS40 SW48 (E545K) EC50): 2.7 nM
